Experimental data reported in US8007790B2, “Methods for treating polycystic kidney disease (PKD) or other cyst forming diseases” (Stowers Institute for Medical Research, priority 2006, dated 2011).
{P} = phosphate

Assays:
[1] = system: PC2 localization in inner medullary collecting duct (IMCD) cells; test: Immunofluorescence of PC2 localization in IMCD cells after TNF-alpha induction; assay type: cell-based
Experimental: […] IMCD (ATCC catalog no. CRL-2123) cells were cultured in Dulbecco's modified Eagle's medium/F12 medium supplemented with 10% (v/v) fetal bovine serum (Invitrogen). Then, these cells were induced with TNF-alpha at a final concentration of 200 ng/ml. Immunofluorescence of the IMD cells was performed before and after 16 hours of TNF-alpha exposure.
Immunofluorescence was carried out as previously described. Li et al, Polycystin-1 and polycystin-2 regulate the cell cycle through the helix-loop-helix inhibitor Id2. Nat Cell Biol, 7(12):1202-12 (2005). Primary antibodies were used at the following dilutions: FIP2 (1:100), PC1 (1:500), PC2 (1:500), and flag (1:500). Secondary antibodies used included goat-anti-rabbit IgG-fluorescein isothiocyanate (Molecular Probes, Eugene, Oreg.) and goat-anti-mouse IgG-Texas Red (1:500 dilution; Molecular Probes). Images were captured on an inverted microscope (Axiovert 200M, Carl Zeiss, inc.) equipped with a spinning disc confocal head (Yogogawa), Argon-Krypton laser system (Prairie Technologies, Inc.), and ORCA-ER CCD camera (Hamamatsu). Images were acquired using the Metamorph software (Molecular Devices) and 3D image reconstruction was performed using the Volocity (Improvision, Inc.) software.
The disruption of PC2 localization by TNF-alpha was further confirmed using immunoprecipitation, western blotting, and a TUNEL Assay. […]

IMCD cells = assay type: cell-based
Experimental: To confirm that localization of PC2 was not due to cell death, a TUNEL Assay was performed. Cells treated with or without TNF-alpha were fixed with 4% PFA. The TUNEL assay was performed using a fluorescent apoptosis-detection system (R&D systems, Minneapolis, Minn.) according to the manufacturer's instructions. Fixed cells were treated with TACS-nuclease for the positive control.

[2] = system: cultured embryonic kidneys (E15.5); test: Mouse embryonic kidney organ culture cyst formation assay
Experimental: Embryonic kidneys were dissected in PBS (with calcium and magnesium) plus penicillin-streptomycin-glutamine (GiBCO, Grand Island, N.Y.) from embryos of wild type CD1 mice at E15.5, E16.5 or E17.5 and of C57BL/6 Pkd1+/− or C57BL/6 Pkd2+/− mice or their wild type counterparts at E15.5. The dissected kidneys were cultured at 37° C. in DMEM/F12 containing 2 mM L-glutamine, 10 mM Hepes, 5 μg/ml insulin, 5 μg/ml transferrin, […] selenium, 25 ng/ml prostaglandin E1, 32 pg/ml T3 and 250 IU/ml penicillin-streptomycin. The kidneys were cultured with or without TNF-alpha (Genzyme Diagnostic, Cambridge, Mass.) at different concentrations for 48 hours and then 50 μM 8-Bromo-cyclic AMP (Sigma, St. Louis, Mo.) was added for 5 days. The cultured kidneys were then fixed with 4% paraformaldehyde (PFA) in PBS for 6 hours, washed with PBS twice for 5 minutes each, and transferred to 70% EtOH for short-term storage at room temperature or for more extended storage at 4° C. The fixed kidney samples were subsequently processed for Hematoxylin and Eosin staining following a common histology protocol.
To test the effect of TNF-alpha treatment, the culture conditions were modified using E15.5 kidneys and a low concentration of cAMP, such that there was no cyst formation (0/32 kidneys observed) in the absence of TNF-alpha (see top panel FIGS. 2A and 2B). […] (FIG. 2B). […] Thus, in FIG. 2B, treatment with different concentrations of TNF-alpha for 5 days triggered cyst formation in Pkd2+/− cultured kidneys from E15.5 embryos.

FIP2 [3] = test: Immunoblot of FIP2 level in TNF-alpha treated IMCD cells; assay type: cell-based
Experimental: (§1) The disruption of PC2 localization by TNF-alpha was further confirmed using immunoprecipitation, western blotting, and a TUNEL Assay. Immunoprecipitation and Western blotting were performed on whole-cell lysates as previously described. Li et al, Polycystin-1 and polycystin-2 regulate the cell cycle through the helix-loop-helix inhibitor Id2. Nat Cell Biol, 7(12):1202-12 (2005). The antibodies used for Western blotting included rabbit polyclonal anti-FIP2 51, rabbit anti-PC2 polyclonal antibody 96525 50, rabbit anti-PC1 polyclonal antibody 96521, rabbit anti-Rab8 polyclonal antibody and rabbit anti-TNFR-I polyclonal antibody. Secondary antibodies used included: goat-anti-rabbit IgG-fluorescein isothiocyanate (FITC Molecular Probes, Eugene, Oreg.), goat-anti-mouse IgG-Texas Red, (1:500 dilution; Molecular Probes). For western blotting, goat-anti-rabbit IgG-horseradish peroxidase (HRP or goat-anti-mouse IgG-HRP, 1:10,000 dilution; Amersham Pharmacia Biotech) were used as secondary antibodies.
(§2) Primary cell cultures were prepared as described previously. The cells were propagated in DMEM/F12 supplemented with 5% FBS, 5 μg/ml insulin, 5 μg/ml transferrin and 5 ng/ml sodium selenite (ITS) and 100 IU/ml penicillin G and 0.1 mg/ml streptomycin. […]

[4] = system: TNF-alpha receptor (TNFR); test: Immunoblot of TNFR level in TNF-alpha treated IMCD cells; assay type: cell-based
Experimental: as §1, §2

Pkd2+/- mice [5] = test: Cyst formation in Pkd2+/- mice injected with TNF-alpha; assay type: in vivo; details: 5 μg/mouse/week intraperitoneal, week 4 to week 8.5; control 0 of 10; Fisher's exact test p=0.04
Experimental: The in vitro results described above indicate that TNF-alpha may be a strong physiological modifier of FIP2 that promotes the ADPKD disease phenotype at the organismal level. To test this hypothesis in vivo, 4 week old Pkd2+/− mice were directly injected intra-peritoneally with TNF-alpha (5 μg/mouse, 1 injection/wk) for 4 weeks. Pkd2 mutant mice (Pkd2-183) were kindly provided by Stephan Somlo (Yale University). For TNF-alpha (Genzyme Diagnostic, Cambridge, Mass.) treatment experiments, mice were intraperitoneally injected weekly, from week 4 (day 28) to week 8.5 (day 60), with 5 μg of TNF-alpha per mouse per week or phosphate buffered saline (PBS). 9-17 week old Pkd2+/− mice developed cysts at a frequency of 0.21. Accordingly, the natural frequency of cyst formation may be much lower in the 4 week olds.

Pkd2+/- mice [6] = test: Cyst formation in Pkd2+/- mice treated with etanercept; assay type: in vivo; details: 25 μg/mouse/week, 10 weeks, n=14; PBS control 25% (n=16); Fisher's exact test p=0.05
Experimental: Chronic inhibition of FIP2 expression by a FIP2 inhibitor such as a TNF-alpha inhibitor may alleviate cyst formation. For the TNF-alpha inhibitor etanercept (AMGEN, Thousand Oaks, Calif.), treatment experiments, mice were intraperitoneally injected weekly, from week 8.5 (day 60) to week 18.5 (day 130), with 25 μg of etanercept per mouse per week or phosphate buffered saline (PBS).
To this end, 8-week old Pkd2+/− mice were treated with either etanercept […] administered at 25 μg/mouse/week), or phosphate buffered saline (PBS) in the control group. […] This frequency is consistent with that reported previously (21%, n=29). Remarkably, none of etanercept-treated mice developed kidney cysts (n=14).

FIP2 [7] = test: FIP2 siRNA knock-down of FIP2 expression in IMCD cells (Western blot); assay type: cell-based; details: transfected IMCD cells, comparison of 4 siRNAs
Experimental: (§3) RNAi specific to FIP2 was used to test if the effect of TNF-alpha on PC2 localization was FIP2-dependent. IMCD cells were transfected with siRNA specific for FIP2 to determine if FIP2 caused mislocalization of PC2 upon TNF-alpha induction.
(§4) The transfection was performed using the DharmaFECT siRNA transfection reagent (Dharmacon, Chicago, Ill.) according to the manufacturer's protocol.
(§5) In FIG. 7A, 4 different siRNAs against FIP2 were transfected into IMCD cells. In FIG. 7B, a Western blot was performed as described above using anti-FIP2 antibody to determine FIP2 levels in IMCD cells, which were transfected with siRNA#05 (SEQ ID NO: 2) and #08 (SEQ ID NO: 8) and then treated with TNF-alpha for 16 hours. In FIGS. 7C-7F, immunostaining was performed as described above with 96525 anti-PC2 antibody or YCC2 anti-PC2 antibody at a concentration of 1:500 with IMCD cells transfected with siRNA#08 (SEQ ID NO: 8) before and after TNF-alpha induction.

[8] = system: PC2 localization in IMCD cells; test: Rescue of PC2 localization by FIP2 siRNA in TNF-alpha treated IMCD cells (immunostaining); assay type: cell-based
Experimental: as §3, §4
In FIGS. 1C and 1 D, anti-PC2 antibodies (96525 FIG. 1C; YCC2 FIG. 1D) at a concentration of 1:500 were used to determine whether FIP2 siRNA reduces or eliminates FIP2 expression to restore PC2 localization in TNF-alpha treated IMCD cells.
as §5

In the case of TNF-alpha, the “cells showing loss of PC2 staining at the plasma membrane and cilia” value ([1]; 200 ng/ml TNF-alpha, 16 hours, anti-PC2 antibody 96525) is reported as 100%, the PC2 cilia localization ([1]; TNF-alpha 16 hr, YCC2 anti-PC2 antibody, confocal microscopy) is reported as “loss of PC2 localization along the primary cilia” and the “TUNEL staining (cell death)” value (IMCD cells) is reported as “negative for TUNEL staining”. The “lowest TNF-alpha concentration resulting in cyst formation” value ([2]; Pkd2+/- embryonic kidneys, 5 days) was 1.5 ng/mL, the “cultured kidneys with cyst formation” value ([2]; wild type embryonic kidneys, 6.25-12.5 ng/ml TNF-alpha, five days, low cAMP) was 20/20 and the “lowest TNF-alpha concentration resulting in cyst formation” value ([2]; wild type embryonic kidneys, five days) was 6.25 ng/mL. The “induction of FIP2 level” value (FIP2 [3]) was 2 fold, the “increase of TNFR levels” value [4] was 35% and the “mice that developed unilateral cysts” value (Pkd2+/- mice [5]) was 4 of the 10.
etanercept was tested, and the “mice that developed kidney cysts” value (Pkd2+/- mice [6]) was “none”.
With “siRNA#08: siRNA against FIP2 (Dharmacon); sense SEQ ID NO: 7, antisense SEQ ID NO: 8 (sense CCAUGAAGCUAAAUAAUCAUU; antisense UGAUUAUUUAGCUUCAUGGUU; sense: RNA, backbone not given here; antisense: RNA, 5' {P}, backbone not given here)” the “effect on FIP2 expression” value (FIP2 [7]) was “strongest effect”, the “PC2 localization after TNF-alpha induction” value ([8]; immunostaining with 96525 anti-PC2 antibody) was “rescued the TNF-alpha effect on PC2 localization” and the “PC2 cilia localization after TNF-alpha induction” value ([8]; immunostaining with YCC2 anti-PC2 antibody) was “rescued the PC2 cilia localization”.
